This passage reports Ki results from BindingDB's records for PubMed 7473144 (Gliatech, 1995).

As a reminder, the Ki is a dissociation constant, usually derived from enzyme kinetics or from competition with a known ligand.

The target of this assay is Hrh3 protein (Rattus norvegicus, UniProt Q5PPG3).

The structures appear in SMILES notation.

Hrh3 protein, sequence (Q5PPG3 whole entry): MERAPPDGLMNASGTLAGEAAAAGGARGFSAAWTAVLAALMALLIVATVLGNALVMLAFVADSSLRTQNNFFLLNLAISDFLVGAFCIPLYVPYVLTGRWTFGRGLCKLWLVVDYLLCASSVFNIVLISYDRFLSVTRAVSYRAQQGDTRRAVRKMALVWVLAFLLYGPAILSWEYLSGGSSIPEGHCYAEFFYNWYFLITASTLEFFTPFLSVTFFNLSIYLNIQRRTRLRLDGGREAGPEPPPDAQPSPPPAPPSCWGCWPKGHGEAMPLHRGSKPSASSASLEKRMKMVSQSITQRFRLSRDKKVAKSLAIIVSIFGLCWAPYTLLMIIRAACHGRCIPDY

As for `S=C(NC1CCCCC1)N1CCC(c2cnc[nH]2)CC1`, the affinity, expressed as Ki, was 1.8 nM.
